Source: a melting point compilation (Tetko et al.; mined from patent text by program, amines drawn as free bases though some values may be those of a salt)

First: O=C1c2ccccc2C(=O)c2sc(-c3ccco3)nc21
Second: C=C1CC(c2cnc(-c3ccccc3Cl)s2)N(C)C1=O (stereo not drawn)
The melting point of the first is higher: over 260 °C for the first, 96 to 105 °C for the second.

First: CC(=O)NCc1ccc(CN2CCN(c3ccc(NC(C)=O)cc3)CC2)cc1
Second: Cc1ccccc1C(=NC#N)NC(NC(=O)Cc1ccc(Cl)cc1)C(C)(C)C (stereo not drawn)
The melting point of the first is higher: 225 to 226 °C for the first, 109 to 110 °C for the second.

First: CCCCNC(=O)c1ccc(Cl)c(-n2nc(CCCC)n(Cc3ccc(-c4ccccc4S(=O)(=O)NC(=O)OC(C)(C)C)cc3F)c2=O)c1
Second: Nc1nc2ccccc2c2c1ncn2CCCCNC(=O)Oc1ccc2ccccc2c1
The melting point of the first is lower: 98 to 100 °C for the first, 154 to 155 °C for the second.

First: CC(=O)c1cc(Nc2cc(C)nc(N)n2)cc(C(C)=O)c1
Second: COc1cc(OC)nc(NC(=O)NS(=O)(=O)c2ncccc2C(CF)OC(C)=O)n1 (stereo not drawn)
The melting point of the first is higher: 240 to 241 °C for the first, 145 to 147 °C for the second.

Compared with `Cc1ccc(F)cc1-c1noc(CCC#Cc2ccccn2)n1`, `Cc1cc(-c2nc3cc(C(C)(C)C)c(Cl)nn3c2-c2ccnc(N)c2)ccc1F` is higher in melting point: 90 to 91 °C for the first, 232 to 233 °C for the second.

First: Cc1nc(NC(=O)c2cnn3c(C(F)(F)F)cc(-c4ccc(Cl)cc4)nc23)sc1S(N)(=O)=O
Second: COc1ccc(Cl)cc1C(=O)NC1COc2cc(C)ccc2C1O (stereo not drawn)
The melting point of the first is higher: 305 °C for the first, 151 to 152 °C for the second.

First: NC(=O)c1cc2ccccc2o1
Second: NC(=O)c1cn(C(CO)c2ccccc2)cn1 (stereo not drawn)
The melting point of the first is higher: 165 to 166 °C for the first, 147 to 149 °C for the second.

First: CC(=O)Oc1cn(C(C)=O)c2ccccc12
Second: Cc1nn(C)c(-c2ccccc2)c1N
The melting point of the first is lower: 79.6 to 80.5 °C for the first, 138 to 139 °C for the second.

Compared with `CSC1C(=O)Nc2ccc(Oc3ccccc3Cl)cc21` (stereo not drawn), `Clc1ccc2c(c1)N=Cc1ccccc1O2` is lower in melting point: 120 to 123 °C for the first, 73 to 73.5 °C for the second.

First: COc1ccc2cc([C@H](C)C(=O)OCCNC(=O)c3cccc(CO[N+](=O)[O-])c3)ccc2c1
Second: CCOC(=O)C=Cc1ccc(OCCCc2ccccc2)c([N+](=O)[O-])c1
The melting point of the first is higher: 92 to 94 °C for the first, 67 to 69 °C for the second.

First: Cc1c(SCCCN2CCN(Cc3ccc(Cl)s3)CC2)ccnc1CSc1nc2cc(F)c(F)cc2[nH]1
Second: O=c1[nH]c2ccc(C3=NOC(CN4CCC(C(O)c5ccc(F)cc5)CC4)C3)cc2o1 (stereo not drawn)
The melting point of the first is lower: 79 to 82 °C for the first, 186 to 191 °C for the second.

First: CC1(C)Oc2ccc(S(=O)(=O)C(F)(F)C(F)(F)C(F)(F)F)cc2[C@@H](N)[C@@H]1O (relative stereo)
Second: CCc1nc(C)ccc1OC1SCC(O)C(O)C1O (stereo not drawn)
The melting point of the first is higher: 176 to 177 °C for the first, 172 to 174 °C for the second.

First: CC=C(c1ccc(OC)cc1)c1ccc(OC)cc1
Second: N#COc1ccc(C2(c3ccc(OC#N)cc3)OC(=O)c3ccccc32)cc1
The melting point of the first is lower: 99 to 100 °C for the first, 130 °C for the second.

Compared with `CN(C)c1ccc(NC(=O)N(C[C@H]2CC[C@H](CN(C(=O)Nc3ccc(N(C)C)cc3)C3CCCCCC3)CC2)C2CCCCCC2)cc1`, `Cc1ccc2c(c1)c(O)c(C(=O)NC1CCCCC1)c(=O)n2Cc1ccccc1` is lower in melting point: 159 to 164 °C for the first, 87 °C for the second.

First: CC(C)c1ccc2c(c1)C(Cl)Cc1ccc(F)cc1S2 (stereo not drawn)
Second: COc1ccc2cc3c(c(-c4ccc5c(c4)OCO5)c2c1)CNC3=O
The melting point of the first is lower: 82 to 83 °C for the first, 259 to 262 °C for the second.

Compared with `CCOc1cc2c(Nc3cc(OC)c(Cl)cc3Cl)c(C#N)cnc2cc1Br`, `CNc1nc(C2(S(C)=O)C=CC=C(c3ccccc3)C2)c2cc(OC)c(OC)cc2n1` (stereo not drawn) is lower in melting point: over 250 °C for the first, 163 to 165 °C for the second.

First: O=C(Nc1cccc2cnccc12)NC1CC2(CCC2)Oc2c(O)cccc21 (stereo not drawn)
Second: CCOc1ccc2ccccc2c1C(=O)NC(Cc1ccc(C(F)(F)F)cc1)C(=O)c1ccc(F)cc1 (stereo not drawn)
The melting point of the first is higher: 246 to 247 °C for the first, 188 to 189 °C for the second.

Compared with `CC1(C)CC(N2CCCC2)=CC(=C(C#N)C(O)C#N)C1` (stereo not drawn), `CCn1cc(C(=O)O)c(=O)c2cc(F)c(N3CCNCC3)c(C)c21` is lower in melting point: 246 to 247 °C for the first, 153 to 156 °C for the second.

Compared with `CC(c1ccccc1)C(CS)C(=O)NCC(=O)O` (stereo not drawn), `CCOC(=O)c1cnn2c1c(O)nc1c(C)nn(C)c12` is higher in melting point: 129 °C for the first, 246 to 247 °C for the second.
